# Data as given in patent publication US20220411422A1, “ERBB RECEPTOR INHIBITORS” (Dizal (Jiangsu) Pharmaceutical Co., Ltd., priority 2018, published 2022).
# “Also recorded” adds a separate entry of the source.
# Key:
# [1] = test system: BT474 cells; experiment: BT474 anti-proliferation assay, MTS; type: cell-based; conditions: Homo sapiens, BT-474, 72 h, read-out: HER2WT Amplification BT474 GI50
# Method: A compound's activity of selective inhibition for HER2 wild type amplification can be evaluated with BT474 cell line (ATCC® HTB-20™). The cell line expressed phosphorylated HER2 protein and its proliferation depended on the amplified gene, which could be used for in vitro PD and anti-proliferation assays.
# The anti-proliferation activity of compounds were determined as following procedure: The BT474 cells were sorted in 384 well plates with the DMEM medium containing 10% FBS and […] overnight and then dosed with tested compounds at a series of concentrations (30 μM, 10 μM, 3 μM, 1 μM, 0.3 μM, 0.1 μM, 0.03 μM, 0.01 μM, 0.001 μM) on next day. Meanwhile, another cells plate was prepared for measuring G0 value on next day. The dosed plates were incubate for 72 h at 37° C. with 5% CO2 and the number of viable cells in each well of G0 or dosed plates were measured by MTS (CellTiter 96® AQueous One Solution Cell Proliferation Assay, Promega) endpoint. This assay is a colorimetric method for determining the number viable cells in the proliferation assay. Detection reagents (5 μl) was dispensed into per well, and the plates were incubated for 2 hrs at room temperature. Then, absorbance at 490 nm and 650 nm (reference wavelength) in each well was measured using the safile II. (Tecan). […]
# [2] = test system: Human Pgp/BCRP transporter; experiment: Human Pgp/BCRP transporter substrate assessment; type: in vitro ADME
# [3] = test system: BT474 SC, BM and LM xenograft models; experiment: In vivo anti-tumor potency in SC, BM and LM xenograft mouse models
# [4] = Clinical plasma and CSF PK in HER2+ MBC patients; type: in vivo, human
# Method: The plasma concentration of Compound 6 at the dosage of 50 to 200 mg following single dose or multiple doses were tested. […] In patients with BM, averaged Kpuu,CSF was around 1.82 and 0.78 for Compound 6 and its active metabolite Compound 16, respectively.
smiles,measurement,setting,value
"COc1cc(O[C@H]2CCN(C)CC2(F)F)c2c(Nc3ccc(Oc4ccn5ncnc5c4)c(C)c3)ncnc2c1 (single isomer, unassigned) [Compound 6]",GI50,[1],~20 nM
same,Human Pgp/BCRP transporter substrate,[2],No
same,"anti-tumor activity compared to Tucatinib, Neratinib and Pyrotinib",[3]; BM and LM models,"superior to Tucatinib, Neratinib and Pyrotinib"
same,"anti-tumor activity, monotherapy","[3]; BT474 SC, BM and LM xenograft models, 25-150 mg/kg",potent anti-tumor activity; also recorded: profound tumor regression
same,"anti-tumor activity compared to Tucatinib, Neratinib and Pyrotinib",[3]; SC model,comparable to them
same,Kp uu,"[4]; human, CSF, oral, patients with BM, read-out: averaged Kpuu,CSF",~1.82
same,half-life,"[4]; human, plasma, patients, single oral dose, read-out: terminal half-life (converted)",~1080 min
same,accumulation,"[4]; patients, 15-day repeat dosing",Around 2 fold
same,drug exposure versus dose,"[4]; patients, 50 to 200 mg",increased in a dose proportional manner
same,free trough concentration versus pHER2 IC50 of BT474cl cells,"[4]; patients, doses ≥100 mg bid",above pHER2 IC50 of BT474cl cells
